From patent US10302653B2, “Distinguishing antagonistic and agonistic anti B7-H1 antibodies” (Mayo Foundation for Medical Education and Research, priority 2014, dated 2019)

Assays:
DNA-PK = DNA-PK (Homo sapiens, UniProt P78527); conditions: 10 μM; cited from earlier work
DNA-PKcs = biological target: T1, DNA-PKcs (Mus musculus, UniProt P97313); assay: p38 MAPK activation in pre-activated WT and B7-H1 KO T cells cultured with DNA-PKcs inhibitor; type: cell-based
T1 construct: endogenous in cells
Experimental: NU7026 (2-(morpholin-4-yl)-benzo[h]chomen-4-one) is a DNA-PKcs inhibitor. […] NU7026 is added into cultures with pre-activated WT and B7-H1 KO T cells and after 24-72 hours of incubation, the activation of p38 is measured in the cells. As a consequence of p38 MAPK activation regulated by NU7026, the level of Bcl-xL also is measured in the T cells after treatment with NU7026. If p38 activation is regulated by DNA-PKcs, changes in p38 activation in the presence of NU7026 would be observed in WT T cells. If B7-H1 requires DNA-PKcs to regulate activation of p38 MAPK, NU7026 would induce significant changes in p38 MAPK activation in WT T cells, but not in B7-H1 KO T cells. […] Bcl-xL levels would change accordingly with the changes in p38 MAPK activation. In addition to inhibition of DNA-PKcs activity by NU7026, the impact of total DNA-PKcs protein levels on p38 MAPK activation is evaluated. siRNA-mediated knockdown of DNA-PKcs is known to result in reduced ERK activation in mouse macrophages (Yotsumoto et al., supra). Using a similar approach, experiments are conducted to test whether down-regulation of DNA-PKcs in T cells affects p38 MAPK activation in WT and B7-H1 KO T cells. Preliminary data predicts a potential link between DNA-PK and activation of p38 MAPK. […]

T1 sequence (P97313 whole entry): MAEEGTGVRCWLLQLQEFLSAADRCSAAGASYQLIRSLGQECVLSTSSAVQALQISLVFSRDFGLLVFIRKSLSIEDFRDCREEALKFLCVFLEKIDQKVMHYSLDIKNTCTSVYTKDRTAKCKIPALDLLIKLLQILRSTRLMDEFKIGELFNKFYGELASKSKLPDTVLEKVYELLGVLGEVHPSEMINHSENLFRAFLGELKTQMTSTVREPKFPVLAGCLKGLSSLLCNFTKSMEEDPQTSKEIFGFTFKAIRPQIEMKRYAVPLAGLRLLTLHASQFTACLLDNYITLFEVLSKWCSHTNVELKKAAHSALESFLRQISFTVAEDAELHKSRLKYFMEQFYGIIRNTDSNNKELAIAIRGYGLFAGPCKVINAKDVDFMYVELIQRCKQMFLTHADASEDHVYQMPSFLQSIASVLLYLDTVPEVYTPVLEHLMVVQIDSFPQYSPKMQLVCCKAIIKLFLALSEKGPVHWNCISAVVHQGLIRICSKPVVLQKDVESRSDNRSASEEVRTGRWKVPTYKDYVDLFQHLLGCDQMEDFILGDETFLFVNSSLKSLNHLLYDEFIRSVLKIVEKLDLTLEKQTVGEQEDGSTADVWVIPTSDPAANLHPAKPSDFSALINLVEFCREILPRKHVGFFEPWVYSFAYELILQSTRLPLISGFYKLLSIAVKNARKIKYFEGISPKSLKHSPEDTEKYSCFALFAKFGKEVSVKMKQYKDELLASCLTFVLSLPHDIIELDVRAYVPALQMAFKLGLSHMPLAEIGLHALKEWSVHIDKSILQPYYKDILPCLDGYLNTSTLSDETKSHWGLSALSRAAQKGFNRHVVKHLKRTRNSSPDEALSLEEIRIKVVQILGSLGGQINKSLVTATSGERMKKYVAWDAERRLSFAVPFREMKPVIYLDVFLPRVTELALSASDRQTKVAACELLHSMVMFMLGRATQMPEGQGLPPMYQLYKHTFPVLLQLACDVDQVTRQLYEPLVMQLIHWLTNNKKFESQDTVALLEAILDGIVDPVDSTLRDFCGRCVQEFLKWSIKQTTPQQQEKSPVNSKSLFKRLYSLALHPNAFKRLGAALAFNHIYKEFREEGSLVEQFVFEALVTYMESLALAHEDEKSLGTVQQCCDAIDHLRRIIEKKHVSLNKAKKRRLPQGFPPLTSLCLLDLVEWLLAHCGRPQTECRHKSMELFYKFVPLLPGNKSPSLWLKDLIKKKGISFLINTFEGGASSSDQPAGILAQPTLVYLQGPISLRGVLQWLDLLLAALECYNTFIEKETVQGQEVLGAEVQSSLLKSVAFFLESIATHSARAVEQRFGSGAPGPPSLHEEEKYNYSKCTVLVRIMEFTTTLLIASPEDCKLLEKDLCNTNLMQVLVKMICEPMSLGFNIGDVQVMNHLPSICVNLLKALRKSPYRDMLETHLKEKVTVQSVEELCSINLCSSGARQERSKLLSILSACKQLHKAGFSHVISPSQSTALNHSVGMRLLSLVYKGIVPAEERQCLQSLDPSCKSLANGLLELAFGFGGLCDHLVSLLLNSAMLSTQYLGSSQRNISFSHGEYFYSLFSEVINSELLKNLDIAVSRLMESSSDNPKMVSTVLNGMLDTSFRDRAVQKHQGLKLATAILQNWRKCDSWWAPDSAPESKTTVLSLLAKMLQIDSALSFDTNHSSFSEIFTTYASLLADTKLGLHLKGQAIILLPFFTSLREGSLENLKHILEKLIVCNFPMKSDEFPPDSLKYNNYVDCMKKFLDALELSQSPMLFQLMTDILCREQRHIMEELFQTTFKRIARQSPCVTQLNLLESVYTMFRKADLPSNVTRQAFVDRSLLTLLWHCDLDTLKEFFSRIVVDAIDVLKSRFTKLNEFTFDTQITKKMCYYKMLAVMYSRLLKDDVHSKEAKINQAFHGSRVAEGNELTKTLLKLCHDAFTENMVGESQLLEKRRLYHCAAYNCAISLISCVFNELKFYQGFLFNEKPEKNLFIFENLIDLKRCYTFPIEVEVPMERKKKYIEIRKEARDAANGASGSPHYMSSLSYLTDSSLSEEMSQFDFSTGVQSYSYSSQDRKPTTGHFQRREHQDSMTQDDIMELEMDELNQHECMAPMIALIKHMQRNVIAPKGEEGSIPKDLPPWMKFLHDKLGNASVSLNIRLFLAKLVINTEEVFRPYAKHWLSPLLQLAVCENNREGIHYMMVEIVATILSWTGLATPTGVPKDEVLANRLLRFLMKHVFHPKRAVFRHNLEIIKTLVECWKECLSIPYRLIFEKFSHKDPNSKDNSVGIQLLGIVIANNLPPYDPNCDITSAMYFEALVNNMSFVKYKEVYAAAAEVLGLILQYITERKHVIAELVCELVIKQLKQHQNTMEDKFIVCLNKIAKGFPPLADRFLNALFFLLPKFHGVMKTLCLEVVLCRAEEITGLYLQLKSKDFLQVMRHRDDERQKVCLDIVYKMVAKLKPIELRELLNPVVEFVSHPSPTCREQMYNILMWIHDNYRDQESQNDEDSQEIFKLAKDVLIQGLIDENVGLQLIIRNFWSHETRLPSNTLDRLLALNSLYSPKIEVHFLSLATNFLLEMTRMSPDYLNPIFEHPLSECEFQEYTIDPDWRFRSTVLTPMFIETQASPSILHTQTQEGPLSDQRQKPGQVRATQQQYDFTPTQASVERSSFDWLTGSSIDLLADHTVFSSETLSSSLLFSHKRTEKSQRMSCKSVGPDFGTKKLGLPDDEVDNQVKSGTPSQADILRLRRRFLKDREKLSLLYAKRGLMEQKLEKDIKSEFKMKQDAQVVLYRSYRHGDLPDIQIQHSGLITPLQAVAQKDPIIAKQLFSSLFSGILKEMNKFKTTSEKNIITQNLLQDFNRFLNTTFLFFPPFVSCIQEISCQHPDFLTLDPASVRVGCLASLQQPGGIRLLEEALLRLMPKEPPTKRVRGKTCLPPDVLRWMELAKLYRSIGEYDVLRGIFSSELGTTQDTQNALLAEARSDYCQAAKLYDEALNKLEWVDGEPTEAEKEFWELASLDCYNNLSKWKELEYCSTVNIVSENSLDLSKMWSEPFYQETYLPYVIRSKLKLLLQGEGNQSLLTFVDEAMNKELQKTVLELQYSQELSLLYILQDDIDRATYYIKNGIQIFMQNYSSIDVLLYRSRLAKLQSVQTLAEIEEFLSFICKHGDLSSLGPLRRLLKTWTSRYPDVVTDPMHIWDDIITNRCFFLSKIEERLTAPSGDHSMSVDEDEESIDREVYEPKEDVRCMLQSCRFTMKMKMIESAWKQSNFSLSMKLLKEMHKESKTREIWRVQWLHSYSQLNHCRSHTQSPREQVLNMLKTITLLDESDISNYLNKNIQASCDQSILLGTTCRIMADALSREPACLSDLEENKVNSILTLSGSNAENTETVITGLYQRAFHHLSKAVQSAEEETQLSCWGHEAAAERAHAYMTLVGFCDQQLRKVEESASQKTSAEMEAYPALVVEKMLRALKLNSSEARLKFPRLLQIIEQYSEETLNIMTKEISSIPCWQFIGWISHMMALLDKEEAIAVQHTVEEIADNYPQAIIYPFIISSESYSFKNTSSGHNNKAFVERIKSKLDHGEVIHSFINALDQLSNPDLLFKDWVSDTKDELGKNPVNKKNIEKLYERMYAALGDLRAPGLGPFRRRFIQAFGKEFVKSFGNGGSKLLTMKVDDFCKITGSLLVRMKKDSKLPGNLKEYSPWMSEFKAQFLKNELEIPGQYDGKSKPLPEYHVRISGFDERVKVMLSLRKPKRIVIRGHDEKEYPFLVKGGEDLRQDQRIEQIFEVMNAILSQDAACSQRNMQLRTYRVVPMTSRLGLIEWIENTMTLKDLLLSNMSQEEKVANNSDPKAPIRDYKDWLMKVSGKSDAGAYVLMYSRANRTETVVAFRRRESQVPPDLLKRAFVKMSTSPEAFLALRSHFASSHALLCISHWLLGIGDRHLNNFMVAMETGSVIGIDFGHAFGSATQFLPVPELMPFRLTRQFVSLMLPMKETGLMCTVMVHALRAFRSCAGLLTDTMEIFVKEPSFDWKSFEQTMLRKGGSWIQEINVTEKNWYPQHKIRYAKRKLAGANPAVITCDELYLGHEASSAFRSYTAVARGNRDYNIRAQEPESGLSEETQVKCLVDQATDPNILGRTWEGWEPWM

O=c1cc(N2CCOCC2)oc2c1ccc1ccccc12 [NU7026, 2-(morpholin-4-yl)-benzo[h]chomen-4-one]
inhibition of activity of purified DNA-PK (DNA-PK): completely inhibit
p38 MAPK activation in WT T cells (DNA-PKcs): increased
